Measured values reported in publication PMC12622451, “NADPH Oxidase Inhibition Promotes Brain Resilience by Attenuating Tauopathy and Neuroinflammation in Alzheimer's Disease” (Advanced Science, 2025).

Key:
human Duox2 = human Duox2 (Homo sapiens, UniProt Q9NRD8); assay: ROS chemiluminescence with Drosophila membranes expressing human Duox2; assay type: biochemical
human Duox1 = human Duox1 (Homo sapiens, UniProt Q9NRD9); assay: ROS chemiluminescence with Drosophila membranes expressing human Duox1; assay type: biochemical
human Nox4 [1] = molecular target: T1, human Nox4 (Homo sapiens, UniProt Q9NPH5); assay: ROS chemiluminescence with Drosophila membranes expressing human Nox4; assay type: biochemical
T1 sequence (Q9NPH5 1-578): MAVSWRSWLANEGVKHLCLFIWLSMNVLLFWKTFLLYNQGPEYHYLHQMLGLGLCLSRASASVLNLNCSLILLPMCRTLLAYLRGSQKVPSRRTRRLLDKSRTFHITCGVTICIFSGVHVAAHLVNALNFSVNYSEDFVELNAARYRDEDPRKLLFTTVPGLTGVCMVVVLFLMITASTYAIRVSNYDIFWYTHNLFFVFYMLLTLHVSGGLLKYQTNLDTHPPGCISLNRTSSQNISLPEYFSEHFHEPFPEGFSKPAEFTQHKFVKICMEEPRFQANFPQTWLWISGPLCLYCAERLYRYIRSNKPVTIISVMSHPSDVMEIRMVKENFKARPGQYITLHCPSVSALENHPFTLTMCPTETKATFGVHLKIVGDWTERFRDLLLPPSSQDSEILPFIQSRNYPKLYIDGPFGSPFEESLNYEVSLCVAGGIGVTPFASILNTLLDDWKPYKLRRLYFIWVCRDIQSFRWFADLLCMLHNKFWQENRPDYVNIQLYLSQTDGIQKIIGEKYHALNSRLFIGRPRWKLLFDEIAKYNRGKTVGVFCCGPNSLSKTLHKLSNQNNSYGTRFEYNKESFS

human Nox1 [2] = molecular target: T2, human Nox1 (Homo sapiens, UniProt Q9Y5S8); assay: ROS chemiluminescence with Drosophila membranes expressing human Nox1; assay type: biochemical
T2 sequence (Q9Y5S8 1-564): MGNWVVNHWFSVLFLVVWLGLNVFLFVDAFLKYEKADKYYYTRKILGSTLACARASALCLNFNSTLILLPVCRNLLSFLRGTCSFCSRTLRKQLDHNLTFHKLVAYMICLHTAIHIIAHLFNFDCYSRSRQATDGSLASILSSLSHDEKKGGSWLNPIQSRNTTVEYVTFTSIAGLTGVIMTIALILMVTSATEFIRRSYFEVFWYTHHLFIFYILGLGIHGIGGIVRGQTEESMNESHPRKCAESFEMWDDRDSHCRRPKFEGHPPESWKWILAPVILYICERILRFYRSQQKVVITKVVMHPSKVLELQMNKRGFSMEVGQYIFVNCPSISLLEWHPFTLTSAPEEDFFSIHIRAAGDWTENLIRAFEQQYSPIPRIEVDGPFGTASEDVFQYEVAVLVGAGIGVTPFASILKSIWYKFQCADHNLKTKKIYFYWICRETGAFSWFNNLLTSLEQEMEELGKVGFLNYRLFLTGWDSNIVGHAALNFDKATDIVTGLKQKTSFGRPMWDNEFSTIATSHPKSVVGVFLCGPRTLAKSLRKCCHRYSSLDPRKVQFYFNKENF

human Nox5 = molecular target: T3, human Nox5 (Homo sapiens, UniProt Q96PH1); assay: ROS chemiluminescence with Drosophila membranes expressing human Nox5; assay type: biochemical
T3 sequence (Q96PH1 1-765): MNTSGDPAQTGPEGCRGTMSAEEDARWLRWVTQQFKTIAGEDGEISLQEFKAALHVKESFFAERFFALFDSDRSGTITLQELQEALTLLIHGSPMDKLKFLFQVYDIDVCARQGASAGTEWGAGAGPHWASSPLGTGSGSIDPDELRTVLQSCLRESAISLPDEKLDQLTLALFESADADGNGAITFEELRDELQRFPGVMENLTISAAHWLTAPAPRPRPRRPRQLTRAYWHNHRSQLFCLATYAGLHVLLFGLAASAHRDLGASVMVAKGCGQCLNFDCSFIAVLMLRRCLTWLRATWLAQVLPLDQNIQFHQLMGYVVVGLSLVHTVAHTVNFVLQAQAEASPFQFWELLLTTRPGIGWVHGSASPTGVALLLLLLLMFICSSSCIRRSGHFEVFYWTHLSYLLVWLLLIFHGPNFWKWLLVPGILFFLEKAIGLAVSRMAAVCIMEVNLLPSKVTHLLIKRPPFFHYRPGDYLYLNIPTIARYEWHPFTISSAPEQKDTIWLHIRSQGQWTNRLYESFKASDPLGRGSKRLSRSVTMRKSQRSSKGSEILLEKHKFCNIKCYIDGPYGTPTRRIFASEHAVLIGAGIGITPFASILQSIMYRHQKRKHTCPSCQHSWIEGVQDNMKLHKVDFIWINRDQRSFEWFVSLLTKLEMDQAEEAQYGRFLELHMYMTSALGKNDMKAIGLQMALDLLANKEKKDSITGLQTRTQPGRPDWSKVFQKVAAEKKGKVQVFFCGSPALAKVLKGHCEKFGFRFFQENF

human Nox2 [3] = molecular target: T4, human Nox2 (Homo sapiens, UniProt P04839); assay: ROS chemiluminescence with Drosophila membranes expressing human Nox2; assay type: biochemical
T4 construct: gene CYBB
T4 sequence (P04839 2-570): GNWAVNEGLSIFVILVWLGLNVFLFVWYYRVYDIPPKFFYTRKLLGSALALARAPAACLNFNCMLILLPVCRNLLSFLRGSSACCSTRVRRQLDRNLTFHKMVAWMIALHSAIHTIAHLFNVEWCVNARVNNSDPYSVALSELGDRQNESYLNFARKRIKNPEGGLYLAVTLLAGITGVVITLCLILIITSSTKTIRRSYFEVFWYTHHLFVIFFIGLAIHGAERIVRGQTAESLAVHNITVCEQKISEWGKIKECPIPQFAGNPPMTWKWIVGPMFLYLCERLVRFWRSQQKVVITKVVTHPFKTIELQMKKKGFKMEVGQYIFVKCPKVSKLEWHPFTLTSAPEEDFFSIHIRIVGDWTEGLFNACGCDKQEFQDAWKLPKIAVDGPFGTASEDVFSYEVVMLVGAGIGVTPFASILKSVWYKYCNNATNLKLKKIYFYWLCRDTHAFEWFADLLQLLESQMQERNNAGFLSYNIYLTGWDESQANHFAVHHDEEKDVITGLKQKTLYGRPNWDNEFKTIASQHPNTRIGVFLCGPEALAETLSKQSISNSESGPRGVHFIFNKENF

human Nox2 [4] = molecular target: T4, human Nox2; assay: lucigenin chemiluminescence with Drosophila membranes expressing human Nox2; assay type: cell-based
human Nox1 [5] = molecular target: T2, human Nox1
human Nox4 [6] = molecular target: T1, human Nox4; assay: lucigenin chemiluminescence with Drosophila membranes expressing human Nox4; assay type: cell-based

human Duox1, sequence (Q9NRD9 22-1551): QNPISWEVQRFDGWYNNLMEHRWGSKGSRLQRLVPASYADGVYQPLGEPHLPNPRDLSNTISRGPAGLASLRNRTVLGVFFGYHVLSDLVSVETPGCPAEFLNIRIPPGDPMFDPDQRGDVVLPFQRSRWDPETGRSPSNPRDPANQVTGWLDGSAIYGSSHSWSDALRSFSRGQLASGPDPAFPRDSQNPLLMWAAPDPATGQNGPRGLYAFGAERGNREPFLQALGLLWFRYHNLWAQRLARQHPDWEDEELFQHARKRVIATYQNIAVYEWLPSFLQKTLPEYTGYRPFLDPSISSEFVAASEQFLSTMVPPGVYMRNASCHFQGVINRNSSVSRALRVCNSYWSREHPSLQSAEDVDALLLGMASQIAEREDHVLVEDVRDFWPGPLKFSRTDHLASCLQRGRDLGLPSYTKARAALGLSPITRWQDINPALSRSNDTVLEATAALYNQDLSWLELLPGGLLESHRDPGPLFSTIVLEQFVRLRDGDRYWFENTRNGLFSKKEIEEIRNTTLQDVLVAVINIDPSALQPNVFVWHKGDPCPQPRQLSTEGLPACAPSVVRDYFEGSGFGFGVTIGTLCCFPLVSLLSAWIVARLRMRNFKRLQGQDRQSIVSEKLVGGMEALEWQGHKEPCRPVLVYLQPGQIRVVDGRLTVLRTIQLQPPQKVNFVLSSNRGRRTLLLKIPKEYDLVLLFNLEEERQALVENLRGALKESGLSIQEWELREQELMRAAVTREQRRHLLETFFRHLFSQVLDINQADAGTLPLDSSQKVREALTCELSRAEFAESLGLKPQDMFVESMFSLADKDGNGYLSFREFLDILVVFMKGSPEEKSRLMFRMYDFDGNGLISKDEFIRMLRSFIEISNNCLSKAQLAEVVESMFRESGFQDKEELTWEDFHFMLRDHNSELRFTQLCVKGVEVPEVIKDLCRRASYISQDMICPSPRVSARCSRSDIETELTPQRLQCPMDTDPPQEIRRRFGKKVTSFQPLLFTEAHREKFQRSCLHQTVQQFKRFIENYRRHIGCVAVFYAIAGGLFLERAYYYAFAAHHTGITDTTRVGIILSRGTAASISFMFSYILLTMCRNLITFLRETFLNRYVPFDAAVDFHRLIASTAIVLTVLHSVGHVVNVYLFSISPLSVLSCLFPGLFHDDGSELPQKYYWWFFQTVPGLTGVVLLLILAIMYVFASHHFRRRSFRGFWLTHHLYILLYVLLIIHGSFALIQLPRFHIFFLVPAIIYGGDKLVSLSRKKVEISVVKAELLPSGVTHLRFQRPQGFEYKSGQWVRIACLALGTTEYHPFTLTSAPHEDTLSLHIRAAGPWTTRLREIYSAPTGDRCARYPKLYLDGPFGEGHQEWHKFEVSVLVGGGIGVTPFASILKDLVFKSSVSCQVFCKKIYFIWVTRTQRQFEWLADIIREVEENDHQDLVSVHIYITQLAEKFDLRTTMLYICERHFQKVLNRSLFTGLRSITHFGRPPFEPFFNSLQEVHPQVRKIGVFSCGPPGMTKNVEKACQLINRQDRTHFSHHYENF
human Duox2, sequence (Q9NRD8 26-1548): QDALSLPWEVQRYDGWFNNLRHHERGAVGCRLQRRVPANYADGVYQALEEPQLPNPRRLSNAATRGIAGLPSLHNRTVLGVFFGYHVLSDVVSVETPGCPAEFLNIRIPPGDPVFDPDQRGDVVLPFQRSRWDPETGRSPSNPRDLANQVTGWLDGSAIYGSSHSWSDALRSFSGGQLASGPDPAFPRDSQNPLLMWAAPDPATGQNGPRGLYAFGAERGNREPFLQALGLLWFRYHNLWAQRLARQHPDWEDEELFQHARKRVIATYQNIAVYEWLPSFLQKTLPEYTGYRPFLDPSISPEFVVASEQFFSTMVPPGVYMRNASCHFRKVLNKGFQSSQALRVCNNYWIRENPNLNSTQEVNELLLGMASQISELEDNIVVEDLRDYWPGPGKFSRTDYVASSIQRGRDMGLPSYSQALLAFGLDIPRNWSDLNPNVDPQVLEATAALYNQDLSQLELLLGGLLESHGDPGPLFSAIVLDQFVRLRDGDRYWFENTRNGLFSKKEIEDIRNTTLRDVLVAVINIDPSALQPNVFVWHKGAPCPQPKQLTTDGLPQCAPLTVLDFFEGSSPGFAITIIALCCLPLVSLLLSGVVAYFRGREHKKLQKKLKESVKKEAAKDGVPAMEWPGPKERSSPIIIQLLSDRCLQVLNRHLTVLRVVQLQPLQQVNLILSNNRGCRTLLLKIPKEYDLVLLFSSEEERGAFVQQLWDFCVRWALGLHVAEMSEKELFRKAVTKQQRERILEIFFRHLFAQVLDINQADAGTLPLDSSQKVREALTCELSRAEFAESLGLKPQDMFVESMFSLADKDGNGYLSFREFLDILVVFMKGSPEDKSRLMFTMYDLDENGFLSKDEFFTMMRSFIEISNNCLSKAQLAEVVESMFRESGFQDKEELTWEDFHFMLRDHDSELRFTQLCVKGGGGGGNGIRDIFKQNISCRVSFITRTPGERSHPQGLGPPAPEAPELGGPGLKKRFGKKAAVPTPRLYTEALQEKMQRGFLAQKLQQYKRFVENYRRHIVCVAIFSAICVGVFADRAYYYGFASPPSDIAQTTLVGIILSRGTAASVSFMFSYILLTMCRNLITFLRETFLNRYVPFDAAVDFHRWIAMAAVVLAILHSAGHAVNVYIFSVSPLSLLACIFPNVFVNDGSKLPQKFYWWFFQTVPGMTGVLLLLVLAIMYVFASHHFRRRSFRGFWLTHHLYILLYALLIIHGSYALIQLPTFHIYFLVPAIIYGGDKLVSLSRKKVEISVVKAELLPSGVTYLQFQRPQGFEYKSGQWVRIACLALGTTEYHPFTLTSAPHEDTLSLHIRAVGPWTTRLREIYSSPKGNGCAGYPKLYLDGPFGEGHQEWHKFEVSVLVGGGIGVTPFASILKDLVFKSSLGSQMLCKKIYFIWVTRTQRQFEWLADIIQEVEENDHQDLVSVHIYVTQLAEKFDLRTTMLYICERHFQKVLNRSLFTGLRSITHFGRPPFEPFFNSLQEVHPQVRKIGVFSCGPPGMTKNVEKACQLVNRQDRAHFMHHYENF

| IC50 (human Duox2) [nM] | IC50 (human Duox1) [nM] | IC50 (human Nox4 [1]) [nM] | IC50 (human Nox1 [2]) [nM] | IC50 (human Nox5) [nM] | IC50 (human Nox2 [3]) [nM] | SMILES | lucigenin chemiluminescence with Drosophila membranes expressing human Nox2 (human Nox2 [4]) | lucigenin chemiluminescence with Drosophila membranes expressing human Nox1 (human Nox1 [5]) | lucigenin chemiluminescence with Drosophila membranes expressing human Nox4 (human Nox4 [6]) |
| --- | --- | --- | --- | --- | --- | --- | --- | --- | --- |
| 200 to 300 | 200 to 300 | 200 to 300 | 200 to 300 | 200 to 300 | 200 to 300 | O=C(Nc1nnc(-c2ccccc2)o1)c1ccc(F)c(C(F)(F)F)c1 [CRB-2131, 4‐fluoro‐N‐(5‐phenyl‐1,3,4‐oxadiazol‐2‐yl)‐3‐(trifluoromethyl) benzamide] | – | – | – |
| – | – | – | – | – | – | c1ccc2c(c1)[I+]c1ccccc1-2 [DPI, Diphenyleneiodonium chloride] | DPI exhibited low Nox inhibitory activity, while GSK2795039 showed very minimal inhibition | DPI exhibited low Nox inhibitory activity, while GSK2795039 showed very minimal inhibition | DPI exhibited low Nox inhibitory activity, while GSK2795039 showed very minimal inhibition |
